# Target: HPK1 (Homo sapiens (Human), UniProt Q92918)
# Experiment: HPK1 Kinase Binding Assay
# Conditions: LanthaScreen tracer 222 binding, active HPK1, one hour incubation at 25° C.
# How it was run: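 This is a LanthaScreen tracer-binding format: a tracer 222/Eu-anti-GST antibody mix (18 nM and 4 nM solution) is added to active HPK1 (4 nM solution) with 3-fold, 11-point compound dilutions. Incubation is 1 h at 25 °C in HEPES pH 7.5 buffer before reading, and Ki is determined.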
# Chain of HPK1 (Q92918 1-346): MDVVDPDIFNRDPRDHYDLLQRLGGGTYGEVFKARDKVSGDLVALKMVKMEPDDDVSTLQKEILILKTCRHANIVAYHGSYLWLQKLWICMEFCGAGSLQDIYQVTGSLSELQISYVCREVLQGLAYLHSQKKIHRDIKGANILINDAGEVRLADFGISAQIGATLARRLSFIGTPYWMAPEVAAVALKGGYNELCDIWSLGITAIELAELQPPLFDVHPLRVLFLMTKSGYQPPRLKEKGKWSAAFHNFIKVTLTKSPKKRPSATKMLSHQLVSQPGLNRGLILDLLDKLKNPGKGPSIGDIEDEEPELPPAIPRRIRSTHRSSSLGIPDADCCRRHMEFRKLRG
row,Ki [nM],Structure (SMILES)
1,≤ 100,"CN(C)c1ncc(-c2n[nH]c3cnc(-c4c(F)cc5c(c4F)CNCC5)nc23)cn1 [Example 93, 5-(5-(6,8-Difluoro-1,2,3,4-tetrahydroisoquinolin-7-yl)-1H-pyrazolo[4,3-d]pyrimidin-3-yl)-N,N-dimethylpyrimidin-2-amine]"
2,≤ 100,"CN1CCN(c2ccc(-c3n[nH]c4cnc(-c5c(F)cccc5Cl)nc34)cc2)CC1 [Example 4, 5-(2-Chloro-6-fluorophenyl)-3-(4-(4-methylpiperazin-1-yl)phenyl)-1H-pyrazolo[4,3-d]pyrimidine]"
3,≤ 100,"CNCc1cc(F)c(-c2ncc3[nH]nc(-c4ccc(N5CCN(C(C)=O)CC5)nc4)c3n2)c(C(F)(F)F)c1 [Example 77, 1-(4-(5-(5-(2-Fluoro-4-((methylamino)methyl)-6-(trifluoromethyl)phenyl)-1H-pyrazolo[4,3-d]pyrimidin-3-yl)pyridin-2-yl)piperazin-1-yl)ethanone]"
4,≤ 100,"COc1cccc(F)c1-c1ncc2[nH]nc(-c3cccc(N(C)C)c3)c2n1 [Example 30, 3-(5-(2-Fluoro-6-methoxyphenyl)-1H-pyrazolo[4,3-d]pyrimidin-3-yl)-N,N-dimethylaniline]"
5,≤ 100,"CNCc1cc(F)c(-c2ncc3[nH]nc(-c4ccc(N5CCN(CC(C)(C)O)CC5)nc4)c3n2)c(F)c1 [Example 70, 1-(4-(5-(5-(2,6-Difluoro-4-((methylamino)methyl)phenyl)-1H-pyrazolo[4,3-d]pyrimidin-3-yl)pyridin-2-yl)piperazin-1-yl)-2-methylpropan-2-ol]"
6,≤ 100,"COc1cccc(F)c1-c1ncc2[nH]nc(-c3ccc(N4CCN(C)CC4)cc3)c2n1 [Example 11, 5-(2-Fluoro-6-methoxyphenyl)-3-(4-(4-methylpiperazin-1-yl)phenyl)-1H-pyrazolo[4,3-d]pyrimidine]"
7,≤ 100,"COc1c(-c2ncc3[nH]nc(-c4ccc(N5CCOCC5)nc4)c3n2)c(F)cc2c1C(N)CC2 (centres unmarked) [Example 119, 5-Fluoro-7-methoxy-6-(3-(6-morpholinopyridin-3-yl)-1H-pyrazolo[4,3-d]pyrimidin-5-yl)-2,3-dihydro-1H-inden-1-amine]"
8,≤ 100,"COc1cccc(F)c1-c1ncc2[nH]nc(-c3cccc(N4CCOCC4)c3)c2n1 [Example 29, 4-(3-(5-(2-Fluoro-6-methoxyphenyl)-1H-pyrazolo[4,3-d]pyrimidin-3-yl)phenyl)morpholine]"
9,≤ 100,"Fc1cc2c(c(F)c1-c1ncc3[nH]nc(-c4ccc(OC(F)F)nc4)c3n1)CNCC2 [Example 97, 7-(3-(6-(Difluoromethoxy)pyridin-3-yl)-1H-pyrazolo[4,3-d]pyrimidin-5-yl)-6,8-difluoro-1,2,3,4-tetrahydroisoquinoline]"
10,≤ 100,"CCN1CCN(c2ccc(-c3n[nH]c4cnc(-c5c(F)cc(CNC)cc5C(F)(F)F)nc34)cc2)CC1 [Example 124, 1-(4-(3-(4-(4-Ethylpiperazin-1-yl)phenyl)-1H-pyrazolo[4,3-d]pyrimidin-5-yl)-3-fluoro-5-(trifluoromethyl)phenyl)-N-methylmethanamine]"
11,≤ 100,"COc1cccc(F)c1-c1ncc2[nH]nc(-c3cnn(C)c3)c2n1 [Example 14, 5-(2-Fluoro-6-methoxyphenyl)-3-(1-methyl-1H-pyrazol-4-yl)-1H-pyrazolo[4,3-d]pyrimidine]"
12,≤ 100,"CN1CCN(c2ccc(-c3n[nH]c4cnc(-c5ccc6c(c5)C(=O)NC6)nc34)cc2)CC1 [Example 7, 6-(3-(4-(4-Methylpiperazin-1-yl)phenyl)-1H-pyrazolo[4,3-d]pyrimidin-5-yl)isoindolin-1-one]"
13,≤ 100,"Cc1c2c(cc(F)c1-c1ncc3[nH]nc(-c4ccc(N5CCN(C)CC5)nc4)c3n1)CCNC2 [Example 110, 6-Fluoro-8-methyl-7-(3-(6-(4-methylpiperazin-1-yl)pyridin-3-yl)-1H-pyrazolo[4,3-d]pyrimidin-5-yl)-1,2,3,4-tetrahydroisoquinoline]"
14,≤ 100,"COc1cccc(F)c1-c1ncc2[nH]nc(-c3ccc(N4CCN(C(C)=O)CC4)nc3)c2n1 [Example 54, 1-(4-(5-(5-(2-Fluoro-6-methoxyphenyl)-1H-pyrazolo[4,3-d]pyrimidin-3-yl)pyridin-2-yl)piperazin-1-yl)ethan-1-one]"
15,≤ 100,"COc1cccc(F)c1-c1ncc2[nH]nc(-c3ccc(CN4CCN(C)CC4)cc3)c2n1 [Example 23, 5-(2-Fluoro-6-methoxyphenyl)-3-(4-((4-methylpiperazin-1-yl)methyl)phenyl)-1H-pyrazolo[4,3-d]pyrimidine]"
16,≤ 100,"COc1ccc(-c2n[nH]c3cnc(-c4c(F)cccc4OC)nc23)cc1 [Example 35, 5-(2-Fluoro-6-methoxyphenyl)-3-(4-methoxyphenyl)-1H-pyrazolo[4,3-d]pyrimidine]"
17,100 to 500,"COc1cccc(F)c1-c1ncc2[nH]nc(-c3ccccc3F)c2n1 [Example 13, 5-(2-Fluoro-6-methoxyphenyl)-3-(2-fluorophenyl)-1H-pyrazolo[4,3-d]pyrimidine]"
18,≤ 100,"CNCc1cc(F)c(-c2ncc3[nH]nc(-c4ccc(C5CCOCC5)cc4)c3n2)c(F)c1 [Example 66, 1-(3,5-Difluoro-4-(3-(4-(tetrahydro-2H-pyran-4-yl)phenyl)-1H-pyrazolo[4,3-d]pyrimidin-5-yl)phenyl)-N-methylmethanamine]"

row,Ki [nM],Structure (SMILES)
1,≤ 100,"COc1cccc(F)c1-c1ncc2[nH]nc(-c3ccc(C#N)cc3)c2n1 [Example 17, 4-(5-(2-Fluoro-6-methoxyphenyl)-1H-pyrazolo[4,3-d]pyrimidin-3-yl)benzonitrile]"
2,100 to 500,"COc1cccc(F)c1-c1ncc2[nH]nc(-c3ccc(C(F)(F)F)cc3)c2n1 [Example 18, 5-(2-Fluoro-6-methoxyphenyl)-3-(4-(trifluoromethyl)phenyl)-1H-pyrazolo[4,3-d]pyrimidine]"
3,≤ 100,"CCN1CCN(c2ccc(-c3n[nH]c4cnc(-c5c(F)cc(CNC)cc5F)nc34)cc2)CC1 [Example 67, 1-(4-(3-(4-(4-Ethylpiperazin-1-yl)phenyl)-1H-pyrazolo[4,3-d]pyrimidin-5-yl)-3,5-difluorophenyl)-N-methylmethanamine]"
4,≤ 100,"COc1cccc(-c2n[nH]c3cnc(-c4c(F)cccc4OC)nc23)c1 [Example 19, 5-(2-Fluoro-6-methoxyphenyl)-3-(3-methoxyphenyl)-1H-pyrazolo[4,3-d]pyrimidine]"
5,≤ 100,"CNCc1cc(F)c(-c2ncc3[nH]nc(-c4ccc(N5CCN(CCOC)CC5)cc4)c3n2)c(F)c1 [Example 123, 1-(3,5-Difluoro-4-(3-(4-(4-(2-methoxyethyl)piperazin-1-yl)phenyl)-1H-pyrazolo[4,3-d]pyrimidin-5-yl)phenyl)-N-methylmethanamine]"
6,100 to 500,"CNC(=O)c1cccc(-c2ncc3[nH]nc(-c4ccc(N5CCN(C)CC5)cc4)c3n2)c1F [Example 47, 2-Fluoro-N-methyl-3-(3-(4-(4-methylpiperazin-1-yl)phenyl)-1H-pyrazolo[4,3-d]pyrimidin-5-yl)benzamide]"
7,≤ 100,"Cc1cc(C2CCCCN2)cc(F)c1-c1ncc2[nH]nc(-c3ccc(N4CCN(C)CC4)cc3)c2n1 (centres unmarked) [Example 81, 5-(2-Fluoro-6-methyl-4-(piperidin-2-yl)phenyl)-3-(4-(4-methylpiperazin-1-yl)phenyl)-1H-pyrazolo[4,3-d]pyrimidine]"
8,≤ 100,"CN1CCN(c2ccc(-c3n[nH]c4cnc(-c5ccccc5F)nc34)cc2)CC1 [Example 1, 5-(2-Fluorophenyl)-3-[4-(4-methylpiperazin-1-yl)phenyl]-1H-pyrazolo[4,3-d]pyrimidine]"
9,100 to 500,"COc1cccc(F)c1-c1ncc2[nH]nc(-c3ccc(C4(N5CCOCC5)CC4)cc3)c2n1 [Example 33, 4-(1-(4-(5-(2-Fluoro-6-methoxyphenyl)-1H-pyrazolo[4,3-d]pyrimidin-3-yl)phenyl)cyclopropyl)morpholine]"
10,≤ 100,"CCN1CCN(c2ccc(-c3n[nH]c4cnc(-c5c(C)cc(C6CCCCN6)cc5F)nc34)cc2)CC1 (centres unmarked) [Example 125, 3-(4-(4-Ethylpiperazin-1-yl)phenyl)-5-(2-fluoro-6-methyl-4-(piperidin-2-yl)phenyl)-1H-pyrazolo[4,3-d]pyrimidine]"
11,≤ 100,"COc1cccc(F)c1-c1ncc2[nH]nc(-c3ccc(CC#N)cc3)c2n1 [Example 34, 2-(4-(5-(2-Fluoro-6-methoxyphenyl)-1H-pyrazolo[4,3-d]pyrimidin-3-yl)phenyl)acetonitrile]"
12,≤ 100,"Fc1cc2c(c(F)c1-c1ncc3[nH]nc(-c4ccc(N5CCOCC5)nc4)c3n1)CNCC2 [Example 98, 4-(5-(5-(6,8-Difluoro-1,2,3,4-tetrahydroisoquinolin-7-yl)-1H-pyrazolo[4,3-d]pyrimidin-3-yl)pyridin-2-yl)morpholine]"
13,100 to 500,"COc1cccc(F)c1-c1ncc2[nH]nc(-c3cncnc3)c2n1 [Example 16, 5-(2-Fluoro-6-methoxyphenyl)-3-(pyrimidin-5-yl)-1H-pyrazolo[4,3-d]pyrimidine]"
14,≤ 100,"CNC1CCc2c1cc(F)c(-c1ncc3[nH]nc(-c4cnc(N5CCN(C)CC5)nc4)c3n1)c2F (centres unmarked) [Example 114, 4,6-Difluoro-N-methyl-5-(3-(2-(4-methylpiperazin-1-yl)pyrimidin-5-yl)-1H-pyrazolo[4,3-d]pyrimidin-5-yl)-2,3-dihydro-1H-inden-1-amine]"
15,≤ 100,"CCN1CCN(c2ccc(-c3n[nH]c4cnc(-c5c(F)cccc5OC)nc34)cc2)CC1 [Example 37, 3-(4-(4-Ethylpiperazin-1-yl)phenyl)-5-(2-fluoro-6-methoxyphenyl)-1H-pyrazolo[4,3-d]pyrimidine]"
16,≤ 100,"COc1cccc(F)c1-c1ncc2[nH]nc(-c3ccc(N4CCOCC4)cc3)c2n1 [Example 26, 4-(4-(5-(2-Fluoro-6-methoxyphenyl)-1H-pyrazolo[4,3-d]pyrimidin-3-yl)phenyl)morpholine]"
17,≤ 100,"CN1CCN(c2ccc(-c3n[nH]c4cnc(-c5cccnc5)nc34)cc2)CC1 [Example 5, 3-(4-(4-Methylpiperazin-1-yl)phenyl)-5-(pyridin-3-yl)-1H-pyrazolo[4,3-d]pyrimidine]"

# From patent publication US11014929B2, “Pyrazolopyrimidine compounds and uses thereof” (Incyte Corporation, priority 2016, dated 2021)
